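Briefly, cells in 96-well plates were exposed to five compound concentrations for 48 h, and endpoints were estimated by linear interpolation. The concentration for 50% growth inhibition is given as GI50.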 Calls of active or inactive are those of the source. Cut-off read from the data, not from the text of the source: active = GI50 up to about 1.1 µM and inactive = higher.
Experiments:
Experiment in all cases: growth of human tumour cells (NCI), 48 h
MCF7 = tested on: MCF7
T47D = tested on: T47D
U-251 = tested on: U-251
CCRF-CEM = tested on: CCRF-CEM
MOLT-4 = tested on: MOLT-4
IGROV-1 = tested on: IGROV-1
UACC-62 = tested on: UACC-62
SK-MEL-28 = tested on: SK-MEL-28
LOX IMVI = tested on: LOX IMVI
SW-620 = tested on: SW-620
NCI-H460 = tested on: NCI-H460
OVCAR-4 = tested on: OVCAR-4
K562 = tested on: K562
SNB-19 = tested on: SNB-19
HCT-116 = tested on: HCT-116
SF-539 = tested on: SF-539
NCI-H522 = tested on: NCI-H522
Malme-3M = tested on: Malme-3M
HT-29 = tested on: HT-29
Hs-578T = tested on: Hs-578T

Measured: GI50

COC(=O)C1(C(=O)OC)N=C(C)OC1c1ccccc1O (stereo not drawn)
inactive: MCF7 > 100 µM | T47D > 100 µM | U-251 > 100 µM | CCRF-CEM > 100 µM | MOLT-4 > 100 µM | IGROV-1 > 100 µM | UACC-62 > 100 µM | SK-MEL-28 > 100 µM | LOX IMVI > 100 µM | SW-620 > 100 µM | NCI-H460 > 100 µM | OVCAR-4 > 100 µM | K562 > 100 µM | SNB-19 > 100 µM | HCT-116 > 100 µM

COc1c(Br)cc(Br)c(OC)c1-c1[nH]c(Br)c(Br)c1Br
inactive: U-251 10.4 µM | CCRF-CEM 4.34 µM | MOLT-4 4.53 µM | SF-539 9.98 µM | IGROV-1 5.71 µM | UACC-62 6.98 µM | SK-MEL-28 6.65 µM | LOX IMVI 11.7 µM | SW-620 7.11 µM | NCI-H460 9.48 µM | OVCAR-4 4.28 µM | NCI-H522 2.18 µM | Malme-3M 3.74 µM | K562 4.01 µM | SNB-19 13.1 µM | HT-29 4.17 µM | HCT-116 3.25 µM

COC(=O)/C=C(\C)CC/C=C(\C)CCC1OC1(C)C (stereo not drawn)
inactive: MCF7 11.5 µM | U-251 11.8 µM | CCRF-CEM 4.65 µM | MOLT-4 8.17 µM | SF-539 13.5 µM | IGROV-1 12.2 µM | UACC-62 10.1 µM | SK-MEL-28 12.3 µM | LOX IMVI 2.53 µM | SW-620 13.6 µM | NCI-H460 13.2 µM | OVCAR-4 11.8 µM | Malme-3M 14.6 µM | K562 3.11 µM | Hs-578T 16.1 µM | SNB-19 44.7 µM | HT-29 14 µM | HCT-116 12.5 µM

Cc1c(C(=O)/C=C/c2cccc3ccccc23)[n+]([O-])c2ccccc2[n+]1[O-]
inactive: U-251 14.8 µM | CCRF-CEM 3.2 µM | MOLT-4 11.5 µM | SF-539 11.4 µM | IGROV-1 12.9 µM | UACC-62 11.3 µM | SK-MEL-28 13 µM | LOX IMVI 7.93 µM | SW-620 10.4 µM | NCI-H460 15.3 µM | OVCAR-4 4.47 µM | NCI-H522 5.9 µM | Malme-3M 18.6 µM | K562 4.72 µM | SNB-19 15.7 µM | HT-29 12.3 µM | HCT-116 6.12 µM

CCOC(=O)C(=O)C=P(c1ccccc1)(c1ccccc1)c1ccccc1
inactive: U-251 > 100 µM | CCRF-CEM > 100 µM | MOLT-4 > 100 µM | SF-539 > 100 µM | IGROV-1 > 100 µM | UACC-62 > 100 µM | SK-MEL-28 > 100 µM | LOX IMVI > 100 µM | SW-620 > 100 µM | NCI-H460 34.6 µM | OVCAR-4 > 100 µM | NCI-H522 > 100 µM | Malme-3M > 100 µM | K562 > 100 µM | SNB-19 > 100 µM | HT-29 > 100 µM | HCT-116 > 100 µM

O=C(/C=C/c1ccccc1O)c1ccc([N+](=O)[O-])cc1
inactive: U-251 14.6 µM | CCRF-CEM 15.8 µM | MOLT-4 22.3 µM | SF-539 15.4 µM | IGROV-1 12.9 µM | UACC-62 14.7 µM | SK-MEL-28 16.1 µM | LOX IMVI 15.8 µM | SW-620 16.6 µM | NCI-H460 22.7 µM | OVCAR-4 12 µM | NCI-H522 17.3 µM | Malme-3M 44 µM | K562 20.9 µM | SNB-19 16.6 µM | HT-29 19.9 µM | HCT-116 15.6 µM

C#CCN(Cc1ccc2nc(-c3ccccc3)c(Cl)nc2c1)c1cc(OC)c(OC)c(OC)c1
inactive: U-251 27 µM | CCRF-CEM 37.2 µM | MOLT-4 83.6 µM | SF-539 > 100 µM | IGROV-1 > 100 µM | UACC-62 > 100 µM | SK-MEL-28 > 100 µM | LOX IMVI 14.8 µM | SW-620 15 µM | NCI-H460 46.1 µM | OVCAR-4 > 100 µM | NCI-H522 > 100 µM | Malme-3M > 100 µM | K562 20.1 µM | SNB-19 > 100 µM | HT-29 > 100 µM | HCT-116 40.5 µM

Nc1ccc(C23CC4CC(C2)CC(c2ccc(N)cc2)(C4)C3)cc1
inactive: MCF7 31.8 µM | U-251 14.3 µM | CCRF-CEM 15.7 µM | MOLT-4 11.3 µM | SF-539 16.4 µM | IGROV-1 > 100 µM | UACC-62 29 µM | SK-MEL-28 15 µM | LOX IMVI > 100 µM | SW-620 3.14 µM | NCI-H460 37.2 µM | OVCAR-4 10.2 µM | K562 14.6 µM | SNB-19 37.8 µM | HCT-116 44.3 µM

Cc1ccc(/C=C2\NC(=S)N(CN3CCOCC3)C2=O)cc1
inactive: MCF7 66.5 µM | U-251 > 100 µM | CCRF-CEM > 100 µM | MOLT-4 > 100 µM | IGROV-1 > 100 µM | UACC-62 > 100 µM | SK-MEL-28 > 100 µM | LOX IMVI > 100 µM | SW-620 > 100 µM | OVCAR-4 > 100 µM | Malme-3M > 100 µM | K562 > 100 µM | Hs-578T > 100 µM | SNB-19 > 100 µM | HT-29 > 100 µM | HCT-116 > 100 µM

O=[N+]([O-])c1cccc2c(/N=N/c3ccc4ccccc4c3O)c(O)cc(S(=O)(=O)O)c12
inactive: U-251 9.59 µM | CCRF-CEM 3.05 µM | MOLT-4 5.21 µM | IGROV-1 7.29 µM | UACC-62 7.78 µM | SK-MEL-28 44.3 µM | LOX IMVI 6.18 µM | SW-620 31.6 µM | OVCAR-4 57.9 µM | NCI-H522 7.36 µM | Malme-3M 14.6 µM | K562 > 100 µM | Hs-578T > 100 µM | SNB-19 > 100 µM | HT-29 34.1 µM | HCT-116 31 µM

C1CN2N3CCCC23C1 (stereo not drawn)
inactive: U-251 > 100 µM | CCRF-CEM > 100 µM | MOLT-4 > 100 µM | SF-539 > 100 µM | IGROV-1 > 100 µM | UACC-62 > 100 µM | SK-MEL-28 > 100 µM | LOX IMVI > 100 µM | SW-620 > 100 µM | NCI-H460 > 100 µM | OVCAR-4 > 100 µM | NCI-H522 > 100 µM | Malme-3M > 100 µM | K562 > 100 µM | SNB-19 > 100 µM | HT-29 > 100 µM | HCT-116 > 100 µM

O=[PH](O)c1ccccn1
inactive: U-251 > 100 µM | CCRF-CEM > 100 µM | MOLT-4 > 100 µM | SF-539 > 100 µM | IGROV-1 > 100 µM | UACC-62 > 100 µM | SK-MEL-28 > 100 µM | LOX IMVI > 100 µM | SW-620 > 100 µM | NCI-H460 > 100 µM | OVCAR-4 > 100 µM | NCI-H522 > 100 µM | Malme-3M > 100 µM | K562 > 100 µM | SNB-19 > 100 µM | HT-29 > 100 µM | HCT-116 > 100 µM

O=C(CC1=Nc2nnc(-c3nnc4n3C(=O)C(CC(=O)C3CC3)=N4)n2C1=O)C1CC1
inactive: U-251 > 100 µM | CCRF-CEM > 100 µM | MOLT-4 > 100 µM | SF-539 > 100 µM | IGROV-1 > 100 µM | UACC-62 > 100 µM | SK-MEL-28 > 100 µM | LOX IMVI > 100 µM | SW-620 > 100 µM | NCI-H460 > 100 µM | OVCAR-4 > 100 µM | NCI-H522 > 100 µM | Malme-3M > 100 µM | K562 > 100 µM | SNB-19 > 100 µM | HT-29 > 100 µM | HCT-116 > 100 µM

COc1ccc(-c2c(C#N)c(O)n(C3OC(CO)C(O)C(O)C3O)c(=S)c2C#N)cc1 (stereo not drawn)
inactive: MCF7 > 100 µM | T47D > 100 µM | CCRF-CEM > 100 µM | MOLT-4 > 100 µM | SF-539 > 100 µM | IGROV-1 > 100 µM | UACC-62 > 100 µM | SK-MEL-28 > 100 µM | LOX IMVI > 100 µM | SW-620 > 100 µM | NCI-H460 > 100 µM | NCI-H522 > 100 µM | Malme-3M > 100 µM | K562 > 100 µM | SNB-19 > 100 µM | HT-29 > 100 µM

CC(C)Cc1ccc(C(C)/C=C2\CCC(CN(C)C)C2=O)cc1 (stereo not drawn)
inactive: MCF7 4.43 µM | U-251 16.7 µM | CCRF-CEM 3.92 µM | MOLT-4 2.64 µM | SF-539 16.5 µM | IGROV-1 9.73 µM | UACC-62 17.5 µM | SK-MEL-28 15.8 µM | LOX IMVI 6.97 µM | SW-620 6.82 µM | NCI-H460 20 µM | OVCAR-4 17 µM | NCI-H522 7.31 µM | Malme-3M 17 µM | K562 2.86 µM | Hs-578T 2.74 µM | SNB-19 12.4 µM | HT-29 13.8 µM | HCT-116 7.05 µM

COc1ccc(OC)c(N2CC(N)C2=O)c1 (stereo not drawn)
inactive: U-251 > 100 µM | CCRF-CEM > 100 µM | MOLT-4 > 100 µM | SF-539 > 100 µM | IGROV-1 > 100 µM | UACC-62 > 100 µM | SK-MEL-28 > 100 µM | LOX IMVI > 100 µM | SW-620 > 100 µM | NCI-H460 > 100 µM | OVCAR-4 > 100 µM | NCI-H522 > 100 µM | Malme-3M > 100 µM | K562 > 100 µM | SNB-19 > 100 µM | HT-29 > 100 µM | HCT-116 > 100 µM

— ChEMBL document CHEMBL1201862, “PubChem BioAssay data set” (2004)
